From US10017734B2, “Method for producing dopaminergic neurons” (TAKEDA PHARMACEUTICAL COMPANY LIMITED, priority 2013, dated 2018) come the findings set out here.

Holding throughout (assay type): cell-based
The subject of experiment [1] is cryopreserved day 26 cells induced from human iPS cell (253G1 strain, 201B7 strain). Description: Dopaminergic neuron marker expression by quantitative RT-PCR 2 weeks after thawing of cells cryopreserved on day 26. Particulars: Y27632 10 μM. Here is the method: Midbrain floor plate cells were induced by a method similar to the methods described in Reference Examples 1 to 3, the medium was exchanged with Neuro/B27 added with 0.1 mM ascorbic acid, 0.5 mM dbcAMP, 3 μM PD0325901, and 20 ng/ml activin A (R&D) on day 12 of culture, and the cells were cultured for 14 days more (total 26 days). After culture, the cells were washed with PBS, and dispersed by treating with Accutase (Innovative Cell Technologies) at 37° C. for 20-30 min. After centrifugal washing, the cells were suspended in cell banker 2 (Juji Field Inc.) at a concentration of about 2×10^6 cells/ml/tube, and cryopreserved at −80° C. The cryopreserved cells were thawed by immersion in a thermostatic tank at 37° C. and, after centrifugal washing, seeded in a 96 well plate at a density of 2×10^4 cells per well, and cultured at 37° C. under 5% CO2 for 2 weeks. As the above-mentioned 96 well plate, one coated at 37° C. overnight with Matrigel 1/30-1/40 diluted with DMEM/F12 (Life Technologies Corporation) or Laminin (Trevigen Inc.) diluted with DMEM/F12 at a concentration of 10 μg/ml was used. As the culture medium, Neuro/B27 added with one or more kinds of 0.1 mM ascorbic acid, 0.5 mM dbcAMP, 3 μM PD0325901, and 20 ng/ml activin A, or Neuro/B27 without addition of ascorbic acid, dbcAMP, PD0325901, and activin A as a control was used. […]

Experiment [2] deals with human iPS cell (253G1 strain, 201B7 strain). Description: Time-course expression of differentiation markers by quantitative RT-PCR in the three-step differentiation system. The following applies: conditions excluding only purmorphamine (-Pur). Here is the method: In step 1, the cells were cultured in Neuro/B27 added with 0.5 μM LDN193189, 10 μM SB431542, 0.5 μM purmorphamine, 200 ng/ml SHH and 1 μM CHIR99021 for 5 days. In step 2, the cells were cultured in Neuro/B27 added with 0.5 μM LDN193189 and 1 μM CHIR99021 for 8 days (total 13 days). In step 3, the cells were cultured in Neuro/B27 added with 0.1 mM ascorbic acid, 0.5 mM dbcAMP and 3 μM PD0325901 for 32 days (total 45 days). After culture, time-course expression variation of various differentiation markers was measured by a method similar to Reference Example 3.
As a control, the cells were cultured under conditions without addition of a differentiation inducing factor (− in Figure), conditions excluding only SHH (−SHH in Figure) or conditions excluding only purmorphamine (−Pur in Figure). Also, the group subjected to differentiation induction under the conditions shown in FIG. 9 from step 2 onward was studied.

For experiment [3], the system named is dopaminergic neuron induced from human iPS cell (253G1 strain, 201B7 strain). The experiment is described as follows: Ability to release dopamine by high-KCl stimulation on day 50 of culture. The following applies: HBSS with 55 mM KCl vs HBSS. Here is the method: Floor plate cells were induced by a method similar to the methods described in Reference Examples 1 to 3, differentiation induction was performed by exchanging the medium with (A) Neuro/B27 added with 3 factors of ascorbic acid, dbcAMP and PD0325901, or (B) Neuro/B27 added with 2 factors of ascorbic acid and dbcAMP from day 13 of culture, and an ability to release dopamine by stimulation with high-KCl was evaluated on day 50 of culture.
The above-mentioned evaluation was performed as follows. The medium of the cells after differentiation induction was exchanged with Neuro/B27, and the cells were cultured overnight. […] For the analysis, a trace biological sample analysis system and HTEC500 (Eicom Corporation), electrochemical detector EPC-500 (Eicom Corporation) were used, and the amount of dopamine contained in the sample was measured according to the manual of Eicom Corporation (Eicom information No. 25). […] However, when differentiation was induced using the aforementioned (A) Neuro/B27, an increase in the amount of dopamine released by stimulation with high-KCl could be detected with good reproducibility even in a different lot.

Experiment [4] deals with floor plate cells induced from human iPS cell (253G1 strain, 201B7 strain). The experiment is described as follows: Study of various MEK inhibitors (including FGFR inhibitor): NURR1 expression by quantitative RT-PCR on day 45. Particulars: 253G1 strain, added to ascorbic acid and dbcAMP, 3 μM PD0325901, 3 μM PD184352, 10 μM SU5402. The source says:
Whether midbrain dopaminergic neuron can be induced in a medium containing any of PD184352 (Axon MedChem), SU5402 (FGF receptor (FGFR) inhibitor, Wako Pure Chemical Industries, Ltd.) and PD173074 (FGFR inhibitor, Axon MedChem) instead of PD0325901 in the aforementioned (A) Neuro/B27 was studied.
Floor plate cells were induced by a method similar to the methods described in Reference Examples 1 to 3, the medium was exchanged with Neuro/B27 added with (1) 3 factors of ascorbic acid, dbcAMP and PD0325901, (2) 2 factors of ascorbic acid and dbcAMP, (3) ascorbic acid, dbcAMP and 3 μM PD184352, (4) ascorbic acid, dbcAMP and 10 μM SU5402, or (5) ascorbic acid, dbcAMP and 0.1 μM PD173074 on day 13 of culture, and the cells were cultured at 37° C. under 5% CO2 for not less than 30 days. The medium was exchanged every 3-4 days during the above-mentioned culture periods. On day 45 of culture, the cells were recovered, and expression variation of NURR1 was examined. In 253G1 strain, the expression of NURR1 was elevated by the addition of PD0325901, PD184352 or SU5402 and, in 201B7 strain, the expression of NURR1 was elevated by the addition of all 4 kinds.

Experiment [5] shares this test system. The experiment is described as follows: TH and NURR1 expression by quantitative RT-PCR on day 26 of culture. The following applies: dbcAMP and activin A. Here is the method: Floor plate cells were induced by a method similar to the methods described in Reference Examples 1 to 3, the medium was exchanged with Neuro/B27 added with one or more kinds of 0.1 mM ascorbic acid, 0.5 mM dbcAMP, 3 μM PD0325901, and 20 ng/ml activin A (R&D), or Neuro/B27 without addition of ascorbic acid, dbcAMP, PD0325901, and activin A as a control on day 12 of culture, and the cells were cultured for 14 days more (total 26 days). The cells after culture were recovered, and the expression variation of TH and NURR1 was examined by a method similar to Reference Example 3. […] On the other hand, when ascorbic acid, dbcAMP and PD0325901 were added, the expression level was lower at the time point of day 26 of culture than the addition of ascorbic acid, dbcAMP and activin A.

Experiment [6] has the same test system. The experiment is described as follows: NURR1 expression by quantitative RT-PCR on day 45 after differentiation of floor plate cells. Particulars: 3 μM PD0325901 added in addition to ascorbic acid and dbcAMP. Here is the method: Floor plate cells were induced by a method similar to the methods described in Reference Examples 1 to 3, the medium was exchanged with (A) Neuro/B27 added with 3 factors of 0.1 mM ascorbic acid (SIGMA), 0.5 mM dibutyryl-cAMP (SIGMA, hereinafter to be indicated as dbcAMP) and 3 μM PD0325901, or (B) Neuro/B27 added with 2 factors of 0.1 mM ascorbic acid and 0.5 mM dbcAMP on day 13 of culture, and the cells were cultured at 37° C. under 5% CO2 for not less than 30 days. The medium was exchanged every 3-4 days during the above-mentioned culture periods. On day 45 of culture, the cells were recovered, and expression variation of NURR1 known as a transcription factor extremely important for the differentiation, maturation and maintenance of functions of midbrain dopaminergic neuron was examined.

Experiment [7] has the same test system. The experiment is described as follows: Immunofluorescent staining of TH, NURR1 and FOXA2 proteins on days 45-52 of culture. The following applies: PD0325901 added to ascorbic acid and dbcAMP (Example 1, (A)). Here is the method: Then, the expression of midbrain dopaminergic neuron markers TH, NURR1 and FOXA2 proteins was examined by immunofluorescent staining using anti-TH antibody, anti-NURR1 antibody and anti-FOXA2 antibody. Floor plate cells were induced by a method similar to the methods described in Reference Examples 1 to 3, differentiation induction was performed by exchanging the medium with (A) Neuro/B27 added with 3 factors of ascorbic acid, dbcAMP and PD0325901, or (B) Neuro/B27 added with 2 factors of ascorbic acid and dbcAMP from day 13 of culture, 4% PFA was added on days 45-52 of culture, and the cells were fixed at room temperature for 30 min. The cells were reacted with anti-TH antibody (AB152, Nihon Millipore K.K.), anti-NURR1 antibody (PP-N1404-00, Perseus Proteomics) and anti-FOXA2 antibody (sc-6544, Santa Cruz) as the primary antibodies, and sequentially reacted with Alexa488-labeled secondary antibody, Alexa568-labeled secondary antibody and Alexa647-labeled secondary antibody, corresponding to the immunized animal of the primary antibody, as the secondary antibodies, and observed under a fluorescence microscope. […]

Consider `C[C@@H](N)[C@H]1CC[C@H](C(=O)Nc2ccncc2)CC1` [Y27632, (R)-(+)-trans-4-(1-aminoethyl)-N-(4-pyridyl)cyclohexanecarboxamide], for which the “expression levels of the markers, presence or absence of Y27632” value in experiment [1] is recorded as “scarcely different”.
On to `c1ccc2c(Oc3nc(Nc4ccc(N5CCOCC5)cc4)c4ncn(C5CCCCC5)c4n3)cccc2c1` [purmorphamine, N-(4-morpholinophenyl)-2-(1-naphthyloxy)-9-cyclohexyl-9H-purin-6-amine], for which the “expression of FOXA2” value in experiment [2] is listed as “low”.
As to `O=C(NOC[C@H](O)CO)c1ccc(F)c(F)c1Nc1ccc(I)cc1F` [PD0325901, N-[(2R)-2,3-dihydroxypropoxy]-3,4-difluoro-2-[(2-fluoro-4-iodophenyl)amino]-benzamide], in experiment [3], the “increase in the amount of dopamine released by stimulation with high-KCl” value is recorded as “stably detected”. Besides, the “expression of NURR1” value was “elevated” in experiment [4] and “further elevated highly” in experiment [6]. The “expression of TH and NURR1” value in experiment [5] (3 μM PD0325901 added together with ascorbic acid) is “further elevated highly”. Also, in experiment [5] (ascorbic acid, dbcAMP and PD0325901 compared with ascorbic acid), the “expression level of TH and NURR1” value was “lower”. In addition, the “staining with NURR1 protein” value in experiment [7] was “strongly-positive”.
